The values below come from US6579556B2, “Ambient stable beverage” (Lipton, division of Conopco, Inc., priority 2000, dated 2003).

Converted amounts (≈) assume the structure as drawn. Read-outs that look alike come from different tables or passages of the source. A value given as a limit tells only on which side of the number the result lay.

The assay concerns yeast Saccharomyces cerevisiae X2180-1B. The assay is described as follows: Fungicidal activity / MIC at 50° C. versus 30° C., yeast survival in YEPD broth pH 3.4. It is filed as cell-based. Conditions: for Importance: rating as pasteurisation adjunct. Here is the method: In the table the minimum inhibitory concentration (MIC) is given for each compound as well as the molecular weight (M.W.), the logPoct and a rating of its importance. […] The logPoct, that is the logarithm of the partition coefficient of the relevant compound in octanol and thus a measure of its […], was determined using […]™ software from the CHEMOFFICE ULRA ENHANCED 2000™ software package (version 5.5) that is commercially available from CambridgeSoft.
(§1) YEPD contained glucose, 20 g/l, peptone 20 g/l and yeast extract 10 g/l. Rows of 30 ml tubes containing 10 ml YEPD, pH 3.4, were equilibrated at the required temperature for 7 minutes in a water bath, before inoculation with 10^4 cells/ml of the yeast Saccharomyces cerevisiae X2180-1B. Tubes were held at temperature for 10 minutes before being cooled rapidly in cold water for 5 minutes. Tubes were then incubated for 48 hours at 25° C. to allow surviving yeasts to grow out, and form discrete colonies.
as §1, §1, §1

Setting [1] is: Saccharomyces cerevisiae, minimum inhibitory concentration, 50° C., given as ppm, read-out: MIC50.
Where [2] appears, read: Saccharomyces cerevisiae, minimum inhibitory concentration, 50° C., read-out: MIC50.
Where [3] appears, read: Saccharomyces cerevisiae, read-out: MIC50.

As for `CCCCCCCCCC=CC=O` [2-Dodecenal], the Importance result was “High (High effects compounds, most preferred, generally showed at least a 5 fold decrease in MIC, minimum inhibitory concentration at 50 °C compared with 30° C.)”. For the same molecule, the MIC50 under setting [1] was below 9 µg/mL. The MIC under setting [2] is below 0.05 mM.

In the case of `CC(C)C(=O)OCCOc1ccccc1` [2-Phenoxylethyl isobutyrate], the Importance entry is “High (High effects compounds, most preferred, generally showed at least a 5 fold decrease in MIC, minimum inhibitory concentration at 50 °C compared with 30° C.)”. The MIC under setting [3] was found to be 0.1 mM (≈ 20.8 µg/mL).

As for `CCCCCCCCCCC=CC=O` [2-Tridecenal], the Importance result is “High (High effects compounds, most preferred, generally showed at least a 5 fold decrease in MIC, minimum inhibitory concentration at 50 °C compared with 30° C.)”. Under setting [1], the MIC50 is below 9.8 µg/mL. Besides, the MIC under setting [2] is below 0.05 mM.

As for `CCCCCCCCCC(C)=O` [2-Undecanone], the Importance entry was “High (High effects compounds, most preferred, generally showed at least a 5 fold decrease in MIC, minimum inhibitory concentration at 50 °C compared with 30° C.)”. The MIC under setting [3] was found to be 1 mM (≈ 170 µg/mL).

For the molecule `C=CCOC(=O)CCC1CCCCC1` [Allyl cyclohexanepropionate], the Importance result is “High (High effects compounds, most preferred, generally showed at least a 5 fold decrease in MIC, minimum inhibitory concentration at 50 °C compared with 30° C.)”. In addition, the MIC under setting [2] was determined as 1 mM (≈ 196 µg/mL).

On to `CCCCCOC(=O)CCCCC` [Amyl hexanoate], for which the Importance result is “High (High effects compounds, most preferred, generally showed at least a 5 fold decrease in MIC, minimum inhibitory concentration at 50 °C compared with 30° C.)”. Further, the MIC under setting [2] worked out at 2 mM (≈ 373 µg/mL).

`CCCCCCCC(=O)OCCCCC` [Amyl octanoate]: the Importance result is “Mod”. Moreover, the MIC under setting [2] is 60 mM (≈ 12900 µg/mL).

`O=C(c1ccccc1)C(O)c1ccccc1` (stereo not shown) [Benzoin] came in with an Importance of 10. The MIC under setting [3] was 10 mM (≈ 2120 µg/mL).

As for `O=C(OCc1ccccc1)c1ccccc1` [Benzyl benzoate], the Importance entry is “Mod”. For the same molecule, the MIC under setting [2] was 20 mM (≈ 4240 µg/mL).

As for `O=C(OCc1ccccc1)c1ccccc1O` [Benzyl salicylate], the Importance result is given as “Low”. Under setting [2], the MIC turned out to be 50 mM (≈ 11400 µg/mL).

Turning to `CC(=O)OC1CC2CCC1(C)C2(C)C` (stereo not shown) [Bornyl acetate], the Importance result is “Low”. In addition, the MIC under setting [2] came out at 2 mM.

On to `C=CCCCCCCCCC(=O)OCCCC` [Butyl 10-undecenoate], for which the Importance entry is “Mod”. Further, the MIC under setting [2] worked out at 40 mM (≈ 9620 µg/mL).

As for `CCCCCCC(=O)OCCCC` [Butyl heptanoate], the Importance entry is “High (High effects compounds, most preferred, generally showed at least a 5 fold decrease in MIC, minimum inhibitory concentration at 50 °C compared with 30° C.)”. For the same molecule, the MIC under setting [2] amounted to 5 mM (≈ 931 µg/mL).

`CCCCCCCCCCCC(=O)OCCCC` [Butyl laurate]: the Importance result is “Low”. Also, the MIC under setting [2] was determined as 100 mM (≈ 25600 µg/mL).

For `C=C(C)C1CC=C(C)C(OC(=O)CC)C1` (stereo not shown) [Carvyl propionate], the Importance result was “Mod”. For the same molecule, the MIC50 (minimum inhibitory concentration, 50° C.) was 5 mM.

On to `CCCCCCCCCCOC(=O)CCC` [Decyl butyrate], for which the Importance result was “Low”. For the same molecule, the MIC under setting [2] came out at 70 mM (≈ 16000 µg/mL).

For `CCCCCCCCCCOC(=O)CC` [Decyl propionate], the Importance result is “High (High effects compounds, most preferred, generally showed at least a 5 fold decrease in MIC, minimum inhibitory concentration at 50 °C compared with 30° C.)”. Moreover, under setting [2], the MIC came out at 50 mM (≈ 10700 µg/mL).

`C=CCCCCCCCCC(=O)OCC` [Ethyl 10-undecenoate]: the Importance result is “High (High effects compounds, most preferred, generally showed at least a 5 fold decrease in MIC, minimum inhibitory concentration at 50 °C compared with 30° C.)”. Under setting [2], the MIC came to 50 mM (≈ 10600 µg/mL).

As for `CCCCCCCCCC(=O)OCC` [Ethyl decanoate], the Importance entry is “High (High effects compounds, most preferred, generally showed at least a 5 fold decrease in MIC, minimum inhibitory concentration at 50 °C compared with 30° C.)”. For the same molecule, under setting [2], the MIC worked out at 40 mM (≈ 8010 µg/mL).
